“Also recorded” adds a separate entry of the source.
Key:
cats = assay: Cat PGE2 model of bladder dysfunction; format: in vivo; conditions: PGE2 cats versus controls (each cat before PGE2 installation is its own control); N=3
From the text: Pelvic nerve stimulation is also effective in other models of OAB.

rats = assay: Cystometrograms in the rat PGE2 model of bladder dysfunction; format: in vivo
From the text: In the following examples, two accepted animal models of bladder dysfunction were used. The first was a PGE2 (prostoglandin E2) model, in which installation of PGE2 into rats induces a hyperactive bladder response.
Animal models of bladder dysfunction need to take into account the fact that rodent (e.g. rat) urination behaviour differs from that of humans. However, the following parameters (as defined in Andersson et al. Neurourology and Urodynamics, 30: 636-646 (2011), which is incorporated herein by reference) are accepted measures against which therapeutic interventions can be assessed (adapted from Andersson et al.): • (a) Baseline pressure: minimum pressure between two micturitions. This parameter is important as an internal control for the procedure. • (b) Intermicturition pressure: mean pressure between two micturitions. The IMP is related to the occurrence of non-voiding contractions (NVCs). The more frequent and with higher amplitude the NVCs, the higher the IMP will be. • (c) Threshold pressure: intravesical pressure immediately before micturition. • (d) Maximum pressure: maximum bladder pressure during a micturition cycle. Also known as peak pressure, maximum voiding pressure, or maximum intravesical pressure. It should be noted that this pressure is not identical with the micturition pressure. The true micturition pressure is the pressure at which fluid starts to flow. • (e) Spontaneous activity (SA) or mean intermicturition oscillatory pressure: intermicturition pressure minus baseline pressure. This parameter is an approximate index of spontaneous bladder contractions between micturitions. SA will increase if there are frequent NVCs between micturitions. • (f) Non-voiding contractions (NVCs): defined as increases in intravesical pressure during cystometry, not associated with release of fluid. […] Since threshold pressure is the pressure at onset of micturition, subtraction of baseline pressure from threshold pressure gives the pressure variation between micturitions. • (l) Voiding efficiency: the voided volume expressed as a percentage of bladder capacity (i.e. voided volume/bladder capacity*100) • (m) External urethral sphincter electromyography: electrodes are placed into the external urethral sphincter and electromyography is recorded during bladder filling and voiding. A number of the parameters above were measured for both PGE2 and SHR rats.
A PE-90 polyethylene catheter was inserted into the bladder lumen through a small incision in the apex of the bladder dome. The bladder catheter was connected an infusion pump and a pressure transducer to measure bladder pressure. Additionally, two PFA-coated platinum-iridium wires (0.0055 inch diameter) were bilaterally inserted percutaneously into the external urethral sphincter (EUS) to record EUS EMG. Alternatively, a bipolar paddle electrode was placed intra-abdominally between the external urethral sphincter (EUS) and pubic symphysis (platinum-iridium contacts facing the urethra) to record EUS EMG.
At the start of an experiment, the bladder was continuously filled with physiological saline at room temperature using an infusion pump with an open urethra for 45 minutes to allow recovery post-surgery. The bladder was subsequently emptied, and CMG's were recorded. A single CMG event was characterized by a quiet period, a filling period, and a voiding period at the end of the voiding event, the infusion pump was turned off. The bladder was then emptied and subsequent CMG's were conducted.
PGE2: Control CMG's were conducted under saline infusion. After 2-3 subsequent control CMG events, the bladder was then infused continuously with PGE2 solution for 1 hour to allow for the bladder to reach drug related steady state. Multiple CMG's were then taken.
CMG parameters recorded were previously described by Andersson et al. as outlined above in example 1: model validation. […]

In the case of `CCCCC[C@H](O)/C=C/[C@H]1[C@H](O)CC(=O)[C@@H]1C/C=C\CCCC(=O)O` [PGE2, prostoglandin E2], the bladder capacity (cats) is reported as “dose dependent reduction”, the NVC duration (rats; PGE2 rats versus controls) is reported as “decreased; also recorded: reduction” and the bladder capacity (rats; PGE2 rats versus controls) is reported as “reduction”. The maximum bladder pressure (rats; PGE2 rats versus controls) was “reduction”, the threshold bladder pressure (rats; PGE2 rats versus controls) was “reduction” and the “Δbladder pressure (threshold minus baseline bladder pressure)” value (rats; PGE2 rats versus controls) was “reduction”. The voiding efficiency (rats; PGE2 rats versus controls (each rat before PGE2 installation is its own control), bladder infused with PGE2 solution for 1 hour) was “decreased voiding efficiency; also recorded: statistically non-significant reduction”, the “external urethral sphincter (EUS) EMG activity” value (rats; PGE2 rats versus controls, filling and voiding phases of a CMG event) was “abnormal; also recorded: increase” and the “non-voiding contraction (NVC) magnitude (bladder pressure area under the curve)” value (rats; PGE2 rats versus controls, filling phase) was “decreased magnitude; also recorded: reduction”.

— patent publication US20180214691A1, “NEUROMODULATION DEVICE” (GALVANI BIOELECTRONICS LIMITED, priority 2015, published 2018)
